Like-named read-outs stand apart in the source and are kept apart here.
Tests used:
[1] = ^18F-labeled PSMA compounds; cited from earlier work
[2] = Biodistribution in normal BALB/c mice; assay type: in vivo, mouse; details: tail vein
Procedure: (§1) Approximately 0.93 MBq ^64Cu-cudotadipep or ^64Cu-cunotadipep was injected via the tail vein into normal BALB/c mice or PC3-PIP tumor-bearing nude mice (n = 5/group). Normal and tumor-bearing mice were euthanized at 2, 6, 24, and 48 h following injection. Tumor and normal tissues were excised and weighed, and their radioactivity was measured using a gamma counter (2480 WIZARD2 gamma counter, Perkin Elmer, Waltham, MA, USA). The radioactivity measured in each tissue was expressed as a percentage of the injected dose per gram of tissue (%ID/g).

[3] = Radiation-absorbed dose calculation (OLINDA/EXM) from normal mouse biodistribution; set-up: species or system human
Procedure: The biodistribution results of normal BALB/c mice were used to evaluate the human radiation-absorbed dose. The internal absorbed doses of ^64Cu-cudotadipep and ^64Cu-cunotadipep were evaluated using the residence time and total amount of radioactivity in the target organ of the mice. The internal absorbed dose of the mice was converted to the human dose based on the Medical Internal Radiation Dose schema, using OLINDA/EXM version 1.1 software.

PC3-flu (PSMA−) cells = experiment: Cell uptake in PC3-flu cells; assay type: cell-based, human; details: 1 × 10^6 cells, 3.7 MBq, 2 h, 37 °C
Procedure: (§2) PC3-PIP or PC3-flu cells (1 × 10^6) were mixed with 3.7 MBq (100 μCi) of ^64Cu-cudotadipep or ^64Cu-cunotadipep and incubated at 37 °C and 5% CO2 for 2 h. Following incubation, the cells were washed with PBS twice and collected via centrifugation (2000 rpm, 5 min). Radioactivity was measured using 2480 WIZARD2 gamma counter (Perkin Elmer, Waltham, MA, USA). Percent (%) uptake was calculated using the ratio between the radioactivity of the cells and treated radioactivity.

PC3-PIP (PSMA+) cells = experiment: Cell uptake in PC3-PIP cells; assay type: cell-based, human; details: PC3-PIP cells, 1 × 10^6 cells, 3.7 MBq, 2 h, 37 °C
Procedure: as §2

PC3-PIP tumor xenograft = experiment: Biodistribution in PC3-PIP tumor-bearing nude mice; assay type: in vivo, mouse; details: tail vein
Procedure: All animal experiments followed the procedures approved by the Institutional Animal Care and Use Committee of Korea Institute of Radiological & Medical Sciences (approval No. KIRAMS2021-0044). Male BALB/c mice and athymic nude (Nu/Nu) BALB/c mice (weighing 20–25 g, 8 weeks old) were purchased from Nara Biotech (Seoul, Republic of Korea). PC3-PIP cells (1 × 10^7) were dispensed in 100 μL PBS, mixed with Matrigel, and subcutaneously implanted in the right thigh of male athymic nude (Nu/Nu) BALB/c mice. When the tumor reached 0.5–0.9 cm in diameter (2–3 weeks following implantation), biodistribution studies and PET imaging were performed.
as §1

O=C(O)CC[C@H](NC(=O)N[C@@H](CCCCNC(=O)c1ccc([18F])nc1)C(=O)O)C(=O)O [^18F-DCFPyL]
effective dose [1]: 1.65 × 10^−2 mSv/MBq

O=C([O-])CN(CCN(CC(=O)[O-])Cc1cc(CCC(=O)NCCCCCC(=O)NCCCC[C@H](NC(=O)N[C@@H](CCC(=O)O)C(=O)O)C(=O)O)ccc1O)Cc1cc(CCC(=O)O)ccc1O.[18F-].[Al+3] [^18F-PSMA-11]
effective dose [1]: 1.28 × 10^−2 mSv/MBq

O=C(O)CC[C@H](NC(=O)N[C@@H](CCCCNC(=O)[C@H](Cc1ccc2ccccc2c1)NC(=O)c1ccc(CNC(=O)[C@H](CCC(=O)O)NC(=O)[C@H](CCC(=O)O)NC(=O)c2ccc([18F])nc2)cc1)C(=O)O)C(=O)O [^18F-PSMA-1007]
effective dose [1]: 2.20 × 10^−2 mSv/MBq

O=C([O-])CN1CCN(CC(=O)[O-])CCN(CC(=O)N[C@@H](CCCCNC(=O)CCCc2ccc(I)cc2)C(=O)NCCOCCOCC(=O)N(CCCC[C@H](NC(=O)N[C@@H](CCC(=O)O)C(=O)O)C(=O)O)CC(=O)O)CCN(CC(=O)[O-])CC1.[64Cu+2] [^64Cu-cudotadipep]
Biodistribution, Blood ([2]; 2 h): 4.27 ± 0.64 %ID/g
Biodistribution, Bone ([2]; 2 h): 1.09 ± 0.32 %ID/g
Biodistribution, Brain ([2]; 2 h): 0.26 ± 0.07 %ID/g
Biodistribution, Fat ([2]; 2 h): 1.26 ± 0.28 %ID/g
Biodistribution, Heart ([2]; 2 h): 3.02 ± 0.52 %ID/g
Biodistribution, Intestine ([2]; 2 h): 4.22 ± 0.57 %ID/g
Biodistribution, Kidney ([2]; 2 h): 45.74 ± 12.68 %ID/g
Biodistribution, Liver ([2]; 2 h): 16.12 ± 4.51 %ID/g
Biodistribution, Lung ([2]; 2 h): 5.16 ± 1.26 %ID/g
Biodistribution, Muscle ([2]; 2 h): 1.01 ± 0.15 %ID/g
Biodistribution, Spleen ([2]; 2 h): 6.80 ± 2.46 %ID/g
Biodistribution, Stomach ([2]; 2 h): 2.30 ± 0.60 %ID/g
Biodistribution, Blood ([2]; 6 h): 2.04 ± 0.71 %ID/g
Biodistribution, Bone ([2]; 6 h): 1.10 ± 0.40 %ID/g
Biodistribution, Brain ([2]; 6 h): 0.25 ± 0.10 %ID/g
Biodistribution, Fat ([2]; 6 h): 0.72 ± 0.13 %ID/g
Biodistribution, Heart ([2]; 6 h): 2.67 ± 0.53 %ID/g
Biodistribution, Intestine ([2]; 6 h): 5.85 ± 2.69 %ID/g
Biodistribution, Kidney ([2]; 6 h): 56.43 ± 5.37 %ID/g
Biodistribution, Liver ([2]; 6 h): 19.13 ± 5.32 %ID/g
Biodistribution, Lung ([2]; 6 h): 5.77 ± 1.12 %ID/g
Biodistribution, Muscle ([2]; 6 h): 0.74 ± 0.18 %ID/g
Biodistribution, Spleen ([2]; 6 h): 7.09 ± 0.68 %ID/g
Biodistribution, Stomach ([2]; 6 h): 2.26 ± 1.59 %ID/g
Biodistribution, Blood ([2]; 24 h): 2.01 ± 0.92 %ID/g
Biodistribution, Bone ([2]; 24 h): 0.94 ± 0.41 %ID/g
Biodistribution, Brain ([2]; 24 h): 0.37 ± 0.08 %ID/g
Biodistribution, Fat ([2]; 24 h): 0.70 ± 0.33 %ID/g
Biodistribution, Heart ([2]; 24 h): 2.91 ± 0.66 %ID/g
Biodistribution, Intestine ([2]; 24 h): 3.64 ± 0.83 %ID/g
Biodistribution, Kidney ([2]; 24 h): 41.77 ± 12.09 %ID/g
Biodistribution, Liver ([2]; 24 h): 16.15 ± 3.65 %ID/g
Biodistribution, Lung ([2]; 24 h): 5.56 ± 1.13 %ID/g
Biodistribution, Muscle ([2]; 24 h): 0.68 ± 0.18 %ID/g
Biodistribution, Spleen ([2]; 24 h): 4.14 ± 0.89 %ID/g
Biodistribution, Stomach ([2]; 24 h): 1.38 ± 0.15 %ID/g
Biodistribution, Blood ([2]; 48 h): 1.22 ± 0.36 %ID/g
Biodistribution, Bone ([2]; 48 h): 0.96 ± 0.25 %ID/g
Biodistribution, Brain ([2]; 48 h): 0.44 ± 0.13 %ID/g
Biodistribution, Fat ([2]; 48 h): 0.51 ± 0.27 %ID/g
Biodistribution, Heart ([2]; 48 h): 2.72 ± 0.39 %ID/g
Biodistribution, Intestine ([2]; 48 h): 2.53 ± 0.54 %ID/g
Biodistribution, Kidney ([2]; 48 h): 24.37 ± 1.88 %ID/g
Biodistribution, Liver ([2]; 48 h): 13.48 ± 1.56 %ID/g
Biodistribution, Lung ([2]; 48 h): 4.66 ± 0.50 %ID/g
Biodistribution, Muscle ([2]; 48 h): 0.62 ± 0.12 %ID/g
Biodistribution, Spleen ([2]; 48 h): 2.73 ± 0.28 %ID/g
Biodistribution, Stomach ([2]; 48 h): 1.45 ± 0.65 %ID/g
effective dose ([3]; ICRP tissue-weighting factors, OLINDA/EXM, extrapolated from mouse biodistribution): 3.67 × 10^−1 mSv/MBq
estimated radiation-absorbed dose, kidneys ([3]; adult males, extrapolated from normal BALB/c mouse biodistribution): 8.10 mGy/MBq
cellular uptake (PC3-flu (PSMA−) cells): 0.44 ± 0.06%
cellular uptake (PC3-PIP (PSMA+) cells): 2.93 ± 0.06%
Biodistribution, Blood (PC3-PIP tumor xenograft; 2 h): 2.79 ± 1.90 %ID/g
Biodistribution, Bone (PC3-PIP tumor xenograft; 2 h): 1.34 ± 0.23 %ID/g
Biodistribution, Fat (PC3-PIP tumor xenograft; 2 h): 2.22 ± 1.07 %ID/g
Biodistribution, Heart (PC3-PIP tumor xenograft; 2 h): 2.68 ± 0.45 %ID/g
Biodistribution, Intestine (PC3-PIP tumor xenograft; 2 h): 5.19 ± 0.68 %ID/g
Biodistribution, Kidney (PC3-PIP tumor xenograft; 2 h): 23.11 ± 4.11 %ID/g
Biodistribution, Liver (PC3-PIP tumor xenograft; 2 h): 28.09 ± 3.73 %ID/g
Biodistribution, Lung (PC3-PIP tumor xenograft; 2 h): 8.02 ± 1.49 %ID/g
Biodistribution, Muscle (PC3-PIP tumor xenograft; 2 h): 0.78 ± 0.13 %ID/g
Biodistribution, Spleen (PC3-PIP tumor xenograft; 2 h): 11.94 ± 3.50 %ID/g
Biodistribution, Stomach (PC3-PIP tumor xenograft; 2 h): 2.35 ± 0.63 %ID/g
Biodistribution, Tumor (PC3-PIP tumor xenograft; 2 h): 7.95 ± 1.58 %ID/g
Biodistribution, Blood (PC3-PIP tumor xenograft; 6 h): 1.92 ± 0.53 %ID/g
Biodistribution, Bone (PC3-PIP tumor xenograft; 6 h): 1.25 ± 0.20 %ID/g
Biodistribution, Fat (PC3-PIP tumor xenograft; 6 h): 1.12 ± 0.79 %ID/g
Biodistribution, Heart (PC3-PIP tumor xenograft; 6 h): 2.30 ± 0.30 %ID/g
Biodistribution, Intestine (PC3-PIP tumor xenograft; 6 h): 4.55 ± 0.77 %ID/g
Biodistribution, Kidney (PC3-PIP tumor xenograft; 6 h): 21.51 ± 3.13 %ID/g
Biodistribution, Liver (PC3-PIP tumor xenograft; 6 h): 22.44 ± 2.56 %ID/g
Biodistribution, Lung (PC3-PIP tumor xenograft; 6 h): 7.35 ± 3.45 %ID/g
Biodistribution, Muscle (PC3-PIP tumor xenograft; 6 h): 0.40 ± 0.13 %ID/g
Biodistribution, Spleen (PC3-PIP tumor xenograft; 6 h): 11.43 ± 5.81 %ID/g
Biodistribution, Stomach (PC3-PIP tumor xenograft; 6 h): 2.18 ± 0.47 %ID/g
Biodistribution, Tumor (PC3-PIP tumor xenograft; 6 h): 6.03 ± 3.20 %ID/g
Biodistribution, Blood (PC3-PIP tumor xenograft; 24 h): 1.75 ± 0.41 %ID/g
Biodistribution, Bone (PC3-PIP tumor xenograft; 24 h): 1.88 ± 0.35 %ID/g
Biodistribution, Fat (PC3-PIP tumor xenograft; 24 h): 1.23 ± 0.52 %ID/g
Biodistribution, Heart (PC3-PIP tumor xenograft; 24 h): 2.56 ± 0.49 %ID/g
Biodistribution, Intestine (PC3-PIP tumor xenograft; 24 h): 4.17 ± 1.45 %ID/g
Biodistribution, Kidney (PC3-PIP tumor xenograft; 24 h): 21.57 ± 6.53 %ID/g
Biodistribution, Liver (PC3-PIP tumor xenograft; 24 h): 20.08 ± 4.40 %ID/g
Biodistribution, Lung (PC3-PIP tumor xenograft; 24 h): 6.00 ± 0.85 %ID/g
Biodistribution, Muscle (PC3-PIP tumor xenograft; 24 h): 0.69 ± 0.33 %ID/g
Biodistribution, Spleen (PC3-PIP tumor xenograft; 24 h): 10.43 ± 1.98 %ID/g
Biodistribution, Stomach (PC3-PIP tumor xenograft; 24 h): 2.66 ± 1.28 %ID/g
Biodistribution, Tumor (PC3-PIP tumor xenograft; 24 h): 12.12 ± 1.17 %ID/g
Biodistribution, Blood (PC3-PIP tumor xenograft; 48 h): 1.28 ± 0.24 %ID/g
Biodistribution, Bone (PC3-PIP tumor xenograft; 48 h): 5.05 ± 6.09 %ID/g
Biodistribution, Fat (PC3-PIP tumor xenograft; 48 h): 0.88 ± 0.42 %ID/g
Biodistribution, Heart (PC3-PIP tumor xenograft; 48 h): 2.55 ± 0.12 %ID/g
Biodistribution, Intestine (PC3-PIP tumor xenograft; 48 h): 2.56 ± 0.62 %ID/g
Biodistribution, Kidney (PC3-PIP tumor xenograft; 48 h): 20.41 ± 3.03 %ID/g
Biodistribution, Liver (PC3-PIP tumor xenograft; 48 h): 13.34 ± 0.55 %ID/g
Biodistribution, Lung (PC3-PIP tumor xenograft; 48 h): 4.36 ± 0.62 %ID/g
Biodistribution, Muscle (PC3-PIP tumor xenograft; 48 h): 0.98 ± 0.24 %ID/g
Biodistribution, Spleen (PC3-PIP tumor xenograft; 48 h): 5.74 ± 1.34 %ID/g
Biodistribution, Stomach (PC3-PIP tumor xenograft; 48 h): 1.72 ± 0.70 %ID/g
Biodistribution, Tumor (PC3-PIP tumor xenograft; 48 h): 8.62 ± 0.44 %ID/g
